“Also recorded” adds a separate entry of the source.
Columns and labels:
[1] = molecular target: T1, CYP2C8 (Homo sapiens, UniProt P10632); assay: CYP inhibition in human liver microsomes, CYP2C8; format: in vitro ADME; conditions: HLM, marker substrate Amodiaquine
T1 sequence (P10632 1-490): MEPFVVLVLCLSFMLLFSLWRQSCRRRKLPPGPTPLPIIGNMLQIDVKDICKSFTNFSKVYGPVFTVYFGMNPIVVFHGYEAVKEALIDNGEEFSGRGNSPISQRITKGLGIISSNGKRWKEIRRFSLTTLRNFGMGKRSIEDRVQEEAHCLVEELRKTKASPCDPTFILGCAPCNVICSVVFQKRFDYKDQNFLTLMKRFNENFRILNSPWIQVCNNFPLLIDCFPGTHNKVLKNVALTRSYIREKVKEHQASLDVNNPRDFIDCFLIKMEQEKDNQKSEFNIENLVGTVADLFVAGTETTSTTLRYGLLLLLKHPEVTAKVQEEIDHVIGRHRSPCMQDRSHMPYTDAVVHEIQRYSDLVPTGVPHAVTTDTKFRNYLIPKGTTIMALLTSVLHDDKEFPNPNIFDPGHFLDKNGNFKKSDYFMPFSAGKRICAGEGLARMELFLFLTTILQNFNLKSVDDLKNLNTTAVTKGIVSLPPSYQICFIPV
Experimental: (§1) . The inhibition of CYP2B6 and 3A4 (when midazolam was used as the substrate) by ZB716 was not observed. The inhibitory potential of ZB716 on human CYP enzyme activities appears relatively low.
(§2) The final concentrations of ZB716 in the incubation system were 0, 0.05, 0.15, 0.5, 1.5, 5, and 15 µM (final organic solvent concentration ≤ 1%). […] . […] The concentrations of the isoform-specific metabolites derived from marker substrates were measured by UPLC–MS/MS. The IC50 values were calculated from the percentages of the rate of the metabolite formation relative to non-inhibited controls vs. the concentrations of ZB716 or positive control inhibitors. All incubations were performed in triplicate. The mean of the enzyme activity (% of non-inhibited control) for each concentration was plotted against the log inhibitor concentration, and fitted to an IC50 curve.

[2] = Metabolic stability in dog hepatocytes; format: in vitro ADME
Experimental: (§3) Hepatocytes of humans (#X008001), dogs (#M00205), rats (#M00005), and mice (#M005052) were purchased from BioIVT, NY, USA. Monkey hepatocytes were procured from RILD, Shanghai, China. The metabolic stability of ZB716 in human, monkey, dog, rat and mouse hepatocytes was investigated by incubating ZB716 with human, monkey, dog, rat, and mouse hepatocytes (0.5 × 10^6 cells/mL), or with incubation medium only.
(§4) parent disappearance vs. incubation time curve.
(§5) Scaled-up Clint = kV/N × Scaling Factor
(§6) metabolite formed during the reaction.

[3] = tested on: dog hepatocytes; assay: Metabolic stability in dog hepatocytes; format: in vitro ADME; conditions: 1 μM
Experimental: as §3, §4, §5, §6

[4] = molecular target: T2, CYP2B6 (Homo sapiens, UniProt P20813); assay: CYP phenotyping, recombinant CYP2B6
T2 sequence (P20813 1-491): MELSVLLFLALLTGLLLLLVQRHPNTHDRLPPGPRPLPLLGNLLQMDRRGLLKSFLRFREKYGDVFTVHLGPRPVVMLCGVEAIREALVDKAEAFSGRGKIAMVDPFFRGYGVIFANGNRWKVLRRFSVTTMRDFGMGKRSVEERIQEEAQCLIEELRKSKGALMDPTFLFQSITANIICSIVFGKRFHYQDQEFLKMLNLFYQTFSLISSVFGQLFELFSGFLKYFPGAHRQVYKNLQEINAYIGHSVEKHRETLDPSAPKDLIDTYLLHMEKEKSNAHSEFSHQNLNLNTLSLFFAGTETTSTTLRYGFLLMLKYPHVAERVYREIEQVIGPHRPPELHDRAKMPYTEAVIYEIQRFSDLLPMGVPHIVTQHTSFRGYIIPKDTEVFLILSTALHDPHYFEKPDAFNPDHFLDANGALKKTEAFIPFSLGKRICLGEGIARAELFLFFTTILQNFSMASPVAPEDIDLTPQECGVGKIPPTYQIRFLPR

[5] = molecular target: T2, CYP2B6; assay: CYP inhibition in human liver microsomes, CYP2B6; format: in vitro ADME; conditions: HLM, marker substrate Bupropion
Experimental: as §1, §2

**Q.** For `C[C@]12CC[C@@H]3c4ccc(B(O)O)cc4C[C@@H](CCCCCCCCC[S+]([O-])CCCC(F)(F)C(F)(F)F)[C@H]3[C@@H]1CC[C@@H]2O` (some centres unmarked) [ZB716, fulvestrant-3-boronic acid], which IC50 [1] is on record?
**A.** The IC50 was 6.27 µM.

**Q.** And the half-life at 1 μM ([2]; read-out: Estimated In Vitro t1/2)?
**A.** Its half-life at 1 μM is 26.7 ± 0.4 min.

**Q.** And the hepatocyte CLint at 1 μM ([2]; read-out: In Vitro Clint)?
**A.** The hepatocyte CLint at 1 μM was 51.9 ± 0.7 µL/min/1e6 cells.

**Q.** And the CLint scaled at 1 μM ([2]; read-out: Scaled-Up Clint)?
**A.** The CLint scaled at 1 μM was 357 ± 5 mL/min/kg.

**Q.** And the “Remaining at 120 min” value [3]?
**A.** The value was 6.99 ± 0.46%.

**Q.** What about the half-life at 2 µM ([4]; human) of the same compound?
**A.** The half-life at 2 µM was 41 ± 6.8 min.

**Q.** What about the Clint ([4]; recombinant CYP2B6, 2 µM ZB716) of the same compound?
**A.** The Clint was 0.343 ± 0.052 µL/min/pmol CYP.

**Q.** What about the IC50 [5] of the same compound?
**A.** The IC50 was “not observed; also recorded: No Inhibition”.
